In patent US4794104A, “Pharmaceutical compositions containing ACTH fragments for the therapy of shock conditions and of respiratory and cardiocirculatory insufficiencies” (priority 1986, dated 1988):

Key:
shock = details: in vivo; cited from earlier work
[1] = tested on: hypovolemic shock (severe hypotension induced by bleeding) in rats; test: Hypovolemic shock by bleeding in anesthetized rats: mean arterial pressure and survival after i.v. bolus; type: in vivo, female Wistar rats; details: for Mean arterial pressure, 15-30 min. after treatment / Mean arterial pressure, after bleeding / Mean arterial pressure, before bleeding: mean ± S.E.; for Mean arterial pressure, after bleeding: before treatment; for Mean arterial pressure, before bleeding: baseline before bleeding
Experimental: Intact and adrenalectomized female Wistar rats (Nossan, Correzzano, Milano, Italy) weighing 250 to 300 g, were used. Following anesthetization and heparinization a common carotid artery and an iliac vein were cannulated in rats. Arterial blood pressure was recorded by means of a pressure transducer (Statham P23 Db) connected to a polygraph (Battaglia-Rangoni, Bologna, Italy). […] Hypovolemic shock was produced by intermittently withdrawing blood from the venous catheter until mean arterial pressure fell to 16-30 mm Hg. […] Following bleeding and mean blood pressure stabilization in the range of 16-30 mm Hg, animals were given intravenous bolus of either ACTH fragments. Control animals were intravenously injected with the same volume of saline (0.1 ml/100 g of body weight).

[2] = Toxicity and side-effects of ACTH fragments (general statement)
[3] = group later given 160 μg/kg i.v.
[4] = group later given 40 μg/kg i.v.
[5] = group later given 80 μg/kg i.v.

For `C=CCN1CC[C@]23c4c5ccc(O)c4O[C@H]2C(=O)CC[C@@]3(O)[C@H]1C5` [naloxone], the “Dosage therapeutically active in shock” value (shock) is given as “about 1 mg/kg”.
For “ACTH (1-13) (SYSMEHFRWGKPV; Corticotropin; UniProt P01189 138-150, looked up, fragment) [ACTH-(1-13)]”, the “No. of deaths 120 min. after treatment” value ([1]; 160 μg/kg i.v. after bleeding) was 0, the “Mean arterial pressure, 15-30 min. after treatment” value ([1]; 160 μg/kg i.v. after bleeding) was 34.50 ± 1.32 mm Hg and the “Mean arterial pressure, after bleeding” value [1, 3] was 15.75 ± 1.31 mm Hg. For the same compound, the “Mean arterial pressure, before bleeding” value [1, 3] was 66.25 ± 9.14 mm Hg.
In the case of “ACTH (1-16) (SYSMEHFRWGKPVGKK; Corticotropin; UniProt P01189 138-153, looked up, fragment) [ACTH-(1-16)]”, the “No. of deaths 120 min. after treatment” value ([1]; 160 μg/kg i.v. after bleeding) is reported as 0, the “Mean arterial pressure, 15-30 min. after treatment” value ([1]; 160 μg/kg i.v. after bleeding) is reported as 54.50 ± 2.02 mm Hg and the “Mean arterial pressure, after bleeding” value [1, 3] is reported as 15.50 ± 2.53 mm Hg. The “Mean arterial pressure, before bleeding” value [1, 3] was 78.25 ± 12.46 mm Hg.
With ACTH (1-17) [ACTH-(1-17)] the “No. of deaths 120 min. after treatment” value ([1]; 160 μg/kg i.v. after bleeding) was 0, the “Mean arterial pressure, 15-30 min. after treatment” value ([1]; 160 μg/kg i.v. after bleeding) was 41.50 ± 3.75 mm Hg and the “Mean arterial pressure, after bleeding” value [1, 3] was 15.75 ± 2.29 mm Hg. The “Mean arterial pressure, before bleeding” value [1, 3] was 57.50 ± 7.17 mm Hg.
With “ACTH (1-18) (SYSMEHFRWGKPVGKKRR; Corticotropin; UniProt P01189 138-155, looked up, fragment) [ACTH-(1-18)]” the “No. of deaths 120 min. after treatment” value ([1]; 160 μg/kg i.v. after bleeding) was 0, the “Mean arterial pressure, 15-30 min. after treatment” value ([1]; 160 μg/kg i.v. after bleeding) was 38.50 ± 1.85 mm Hg and the “Mean arterial pressure, after bleeding” value [1, 3] was 15.00 ± 2.12 mm Hg. The “Mean arterial pressure, before bleeding” value [1, 3] was 53.00 ± 4.88 mm Hg.
In the case of ACTH (1-24) [ACTH-(1-24)], the “No. of deaths 120 min. after treatment” value ([1]; 40 μg/kg i.v. after bleeding) is reported as 0, the “Mean arterial pressure, 15-30 min. after treatment” value ([1]; 40 μg/kg i.v. after bleeding) is reported as 39.40 ± 6.32 mm Hg and the “No. of deaths 120 min. after treatment” value ([1]; 80 μg/kg i.v. after bleeding) is reported as 0. The “Mean arterial pressure, 15-30 min. after treatment” value ([1]; 80 μg/kg i.v. after bleeding) was 59.48 ± 8.10 mm Hg, the “No. of deaths 120 min. after treatment” value ([1]; 160 μg/kg i.v. after bleeding) was 0 and the “Mean arterial pressure, 15-30 min. after treatment” value ([1]; 160 μg/kg i.v. after bleeding) was 75.80 ± 8.45 mm Hg. For the same compound, the “Mean arterial pressure, after bleeding” value [1, 4] was 17.40 ± 2.68 mm Hg, the “Mean arterial pressure, before bleeding” value [1, 4] was 82.33 ± 11.73 mm Hg and the “Mean arterial pressure, after bleeding” value [1, 5] was 19.23 ± 3.65 mm Hg. For the same compound, the “Mean arterial pressure, before bleeding” value [1, 5] was 80.15 ± 9.43 mm Hg, the “Mean arterial pressure, after bleeding” value [1, 3] was 23.15 ± 2.90 mm Hg and the “Mean arterial pressure, before bleeding” value [1, 3] was 82.40 ± 10.75 mm Hg. The Toxicity / side-effects [2] was “substantially non-toxic”.
In the case of “ACTH (1-39) (SYSMEHFRWGKPVGKKRRPVKVYPNGAEDESAEAFPLEF; Corticotropin; UniProt P01189 138-176, looked up) [ACTH-(1-39), full-length ACTH (1-39)]”, the “No. of deaths 120 min. after treatment” value ([1]; 160 μg/kg i.v. after bleeding) is reported as 0, the “Mean arterial pressure, 15-30 min. after treatment” value ([1]; 160 μg/kg i.v. after bleeding) is reported as 35.75 ± 5.65 mm Hg and the “Mean arterial pressure, after bleeding” value [1, 3] is reported as 14.75 ± 2.32 mm Hg. For the same compound, the “Mean arterial pressure, before bleeding” value [1, 3] was 88.25 ± 2.17 mm Hg.
In the case of “ACTH (4-10) (MEHFRWG; Corticotropin; UniProt P01189 141-147, looked up, fragment) [ACTH-(4-10)]”, the “No. of deaths 120 min. after treatment” value ([1]; 160 μg/kg i.v. after bleeding) is reported as 0, the “Mean arterial pressure, 15-30 min. after treatment” value ([1]; 160 μg/kg i.v. after bleeding) is reported as 47.25 ± 6.18 mm Hg and the “Mean arterial pressure, after bleeding” value [1, 3] is reported as 13.75 ± 2.53 mm Hg. The “Mean arterial pressure, before bleeding” value [1, 3] was 63.25 ±6.76 mm Hg.
For “ACTH(25-39) (NGAEDESAEAFPLEF; Corticotropin; UniProt P01189 162-176, looked up, fragment)”, the “No. of deaths 120 min. after treatment” value ([1]; 160 μg/kg i.v. after bleeding) was 1, the “Mean arterial pressure, 15-30 min. after treatment” value ([1]; 160 μg/kg i.v. after bleeding) was 25.50 ± 4.40 mm Hg and the “Mean arterial pressure, after bleeding” value [1, 3] was 11.50 ± 1.34 mm Hg. The “Mean arterial pressure, before bleeding” value [1, 3] was 78.17 ± 7.25 mm Hg.
